Results taken from paper PMC7714073, “Inhibition properties of free and conjugated leupeptin analogues” (FEBS Open Bio, 2020).
Non-standard residues stand in square brackets, D forms with d. Residues, ends and D or L forms follow the SMILES beside them. Ahx = NCCCCCC(=O)O

Key:
Assay type in all cases: biochemical, porcine
trypsin [1] = target: T1, trypsin (Sus scrofa, UniProt P00761); test: Trypsin inhibition, real-time measurements of initial velocities with BAPA (free inhibitors); settings: apparent Ki, tight-binding (Morrison) fit; 0.1 M NH4HCO3 pH 7.52, 2% (v/v) DMSO, BAPA 1 mM, trypsin 0.25 µM, KM 0.82 mM, read at 410 nm
T1 construct: purchased Sigma-Aldrich; host or cells: porcine pancreas
Procedure: Fig. 4 The ratio vi/v 0 is plotted as a function of the inhibitor peptide Ahx–Phe–Leu–Arg–COOH (A) and Ahx–Leu–Leu–Arg–COOH (B). […] Error bars represent standard deviation.
Kinetic parameters were obtained by measuring initial velocities in the presence of selected concentrations of natural leupeptin (0.14–1.62 µM), oxidized leupeptin (8–127 µM), reduced leupeptin (10–413 µM) and peptides 1 and 2 (8–254 µM). All reactions were performed in 0.1 M NH4HCO3 (pH 7.52) and 2% (v/v) DMSO using concentrations of BAPA and trypsin fixed at 1 mM and 0.25 µM, respectively. The reaction was monitored at 410 nm in a Shimadzu UV‐1601 UV‐Vis spectrophotometer.
(§1) For real‐time and end point measurements, the Ki value was estimated by the graphical method of Dixon and Morrison (Eqn 1). Ki was extracted after fitting the data to Eqns (1,2) using GRAPHPAD PRISM 8 (GraphPad Software, San Diego, CA, USA). A K M of 0.82 mM was used for the calculations.(1) vi/vo=1‐([E]+[I]+Kiapp)‐[E]+[I]+Kiapp^2‐4[E][I]/2[E]
(§2) The form of Kappi varies with the type of inhibitor. For competitive inhibitors, as in the case of leupeptin, the Ki value can be calculated from Eqn (2):(2) Kiapp=Ki1+[S]/KM

trypsin [2] = target: T1, trypsin; test: Kinetic measurements of TiO2-peptide conjugate (Vmax, Km; Fig. S2/Table S1); settings: trypsin with conjugate present, 0.1 M NH4HCO3 pH 7.52, trypsin 0.125 µM, 34 mg conjugate (6.06 nmol peptide/mg TiO2) per reaction
Procedure: Figure S2. Kinetic measurements of TiO2-peptide conjugate.
Table S1. Extracted values from figure S2. Experiment setup: Buffer 0.1 M NH4HCO3 pH 7.52, [Trypsin] (in eppendorf) = 0.125 µM, 34 mg TiO2-Ahx-Phe-Leu-COOH
(6.06 nmol mod. peptide/mg TiO2) in each reaction.

trypsin [3] = target: T1, trypsin; test: Gelatin erosion method: inhibition activity of free and conjugated peptide in gelatin layer; settings: for Rate (erosion well formation rate, linear regression): gel experiment; for Plateau (relative asymptotic plateau value, asymptotic area ratio at virtually maximal inhibition): gelatin erosion, relative area increase rate vs inhibitor concentration, fitted in GRAPHPAD PRISM 8
From the text: The gelatin erosion method that simulates a surface with a protective cover layer is here used to evaluate the function of the peptide in its different conjugation states where the relative area increase rate is plotted against the increasing inhibitor concentration in Fig. 6. The curves obtained as a function of concentration for the free peptide and the TiO2‐conjugated peptide, respectively, are virtually identical. […] This may tentatively be explained by a model where the enzyme molecules, once ‘captured’ by the immobilized peptides, also interact nonspecifically with the ZnO surface, resulting in addition of binding energies and thus also cooperative binding. As has been noted earlier by us, the well area converges to an asymptotic nonzero value ‘plateau’ at high inhibitor concentration that is virtually identical for the different cases. The limit may actually be set by the size of the droplet applied and initial enzyme diffusion. However, the similar limiting values further confirm that the inhibition modes are identical for free and conjugated inhibitor. […] This is actually in accordance with the pattern observed for the ZnO conjugate. […] For details regarding the gelatin erosion method, see Fig. S3 and Table S2.
The experiments were performed as described earlier. The concentration of the free inhibitor Ahx–Phe–Leu–Arg–COOH was ranging from 5 to 50 μM, for ZnO conjugate 1–15 μM and for TiO2 conjugate 1–25 μM.
Table S2. The rates, given by the linear regression, are given below for the gel experiment for free Ahx-Phe-Leu-Arg-COOH and its conjugated state to TiO2 and ZnO.

trypsin [4] = target: T1, trypsin; test: Trypsin inhibition, end point measurements with BAPA (conjugated peptide); settings: for Efficiency: Ki,free/Ki,app = [I]eff/[I]tot, free Ahx–Phe–Leu–Arg–COOH as reference (1.00); for Ki: end point measurements
Procedure: Fig. 5 vi/v 0 is plotted as a function of the conjugated TiO2–Ahx–Phe–Leu–Arg–COOH (A), ZnO–Ahx–Phe–Leu–Arg–COOH (B) and WorkBeads™‐Ahx‐Phe‐Leu‐Arg‐COOH (C). […] Error bars represent standard deviation.
Kinetic parameters were obtained by mixing substrate, enzyme and conjugate in a plastic Eppendorf tube with varying concentrations of TiO2–peptide 1 0–70 μM, ZnO–peptide 1 0–60 μM and gel beads conjugated to peptide 1 0–60 μM and incubating with end‐over‐end rotation. A total of 150 µL aliquots was withdrawn at five time points for each reaction, and the reaction was stopped in 100 mM acetic acid (pH 3). Absorbance was measured at 410 nm in a UV‐1601 UV‐Vis spectrophotometer (Shimadzu, Columbia, MD, USA).
as §1, §2

[5] = apparent Ki of conjugated peptide, five time points, stopped in 100 mM acetic acid pH 3, 410 nm, trypsin 0.25 μM, BAPA 1 mM, Km 0.82 mM, read-out: Ki
[6] = apparent Ki of the stored conjugate, storage time not given (conjugates stored at 4 °C), read-out: Ki stored

T1 sequence (P00761 9-231): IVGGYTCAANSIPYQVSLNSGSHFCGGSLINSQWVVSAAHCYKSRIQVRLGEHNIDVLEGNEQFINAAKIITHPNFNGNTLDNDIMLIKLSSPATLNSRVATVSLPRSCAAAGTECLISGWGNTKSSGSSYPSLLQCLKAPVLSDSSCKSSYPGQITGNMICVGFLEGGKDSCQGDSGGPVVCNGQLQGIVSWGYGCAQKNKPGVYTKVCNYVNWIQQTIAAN

Compound | Ki (trypsin [1]) [µM] | Efficiency (trypsin [4]) | Ki (trypsin [4]; [5]) [µM] | Ki (trypsin [4]; [6]) [µM] | also measured
CC(C)C[C@H](NC(=O)CCCCCN)C(=O)N[C@@H](CC(C)C)C(=O)N[C@@H](CCCNC(=N)N)C(=O)O [Ahx–Leu–Leu–Arg–COOH] (H-[Ahx]LLR-OH) | 9.5 ± 1 |  |  |  | 
CC(C)C[C@H](NC(=O)[C@H](Cc1ccccc1)NC(=O)CCCCCN)C(=O)N[C@@H](CCCNC(=N)N)C(=O)O [Ahx–Phe–Leu–Arg–COOH, 6‐aminohexanoic acid (Ahx)–Phe–Leu–Arg–COOH] (H-[Ahx]FLR-OH) | 3.4 ± 0.2 |  |  |  | 
CC(=O)N[C@@H](CC(C)C)C(=O)N[C@@H](CC(C)C)C(=O)N[C@H](C=O)CCCNC(=N)N [Leupeptin, Ac–Leu–Leu–Arg–CHO] | 0.088 ± 0.008 |  |  |  | 
WorkBeads™‐Ahx‐Phe‐Leu‐Arg‐COOH [Ahx–Phe–Leu–Arg–COOH coupled to WorkBeads™ 40/1000 ACT agarose gel beads, 150 nmol·mL^−1 beads] |  | 0.12 | 29 ± 4 | 53 ± 9 | fraction of the conjugated peptides available for the enzyme (trypsin [4]; according to the efficiency, peptide conjugated to agarose gel beads): about 10%

Now from value to compound, other results behind:

Ki (trypsin [1]) [µM] | Efficiency (trypsin [4]) | Ki (trypsin [4]; [5]) [µM] | Ki (trypsin [4]; [6]) [µM] | Compound | also measured
2.7 ± 0.1 |  |  |  | CC(=O)N[C@@H](CC(C)C)C(=O)N[C@@H](CC(C)C)C(=O)N[C@@H](CCCNC(=N)N)C(=O)O [oxidized leupeptin] | 
270 ± 100 |  |  |  | CC(=O)N[C@@H](CC(C)C)C(=O)N[C@@H](CC(C)C)C(=O)N[C@H](CO)CCCNC(=N)N [reduced leupeptin] | 
 | 0.32 | 11 ± 2 | 7.1 ± 1.1 | TiO2–Ahx–Phe–Leu–Arg–COOH | Km (trypsin [2]; no inhibitor: 2.9 ± 0.8): 6.4 ± 1.2 mM; Vmax (trypsin [2]; no inhibitor: 720 ± 100): 250 ± 30; Rate (erosion well formation rate, linear regression) (trypsin [3]; 1 μM inhibitor): 4.0 ± 0.4 mm^2/ μMtrypsin; Rate (erosion well formation rate, linear regression) (trypsin [3]; 5 μM inhibitor): 3.5± 0.4 mm^2/ μMtrypsin; Rate (erosion well formation rate, linear regression) (trypsin [3]; 10 μM inhibitor): 3.6 ± 0.1 mm^2/ μMtrypsin; Rate (erosion well formation rate, linear regression) (trypsin [3]; 15 μM inhibitor): 2.00 ± 0.1 mm^2/ μMtrypsin; Rate (erosion well formation rate, linear regression) (trypsin [3]; 25 μM inhibitor): 2.2 ± 0.3 mm^2/ μMtrypsin; Plateau (relative asymptotic plateau value, asymptotic area ratio at virtually maximal inhibition) (trypsin [3]): 0.42 ± 0.21
 | 0.77 | 4.4 ± 1.3 | 7.6 ± 1.5 | ZnO–Ahx–Phe–Leu–Arg–COOH | Rate (erosion well formation rate, linear regression) (trypsin [3]; 1 μM inhibitor): 3.1 ± 0.5 mm^2/ μMtrypsin; Rate (erosion well formation rate, linear regression) (trypsin [3]; 5 μM inhibitor): 2.3 ± 0.50 mm^2/ μMtrypsin; Rate (erosion well formation rate, linear regression) (trypsin [3]; 10 μM inhibitor): 2.2 ± 0.4 mm^2/ μMtrypsin; Rate (erosion well formation rate, linear regression) (trypsin [3]; 15 μM inhibitor): 2.0 ± 0.5 mm^2/ μMtrypsin; Plateau (relative asymptotic plateau value, asymptotic area ratio at virtually maximal inhibition) (trypsin [3]): 0.46 ± 0.02
